Experimental data as given in article PMC8728736, “A Reactivity-Based ^18F-Labeled Probe for PET Imaging of Oxidative Stress in Chemotherapy-Induced Cardiotoxicity” (Molecular Pharmaceutics, 2021).
Several values for one entry are separate records, joined by “and”; a condition that tells them apart may be missing. Equal values may be shown once.

Tests used:
[1] = Serum stability at 37 °C by radio-HPLC; format: in vitro ADME, rat; conditions: serum, 37 °C, up to 30 min
Procedure: ^18F-FPBT (∼3.0 MBq) in 5% ethanol in PBS (200 μL) containing sodium ascorbate (0.01 mg/mL) was incubated with rat serum (200 μL) at 37 °C for 1 min or 1 h. Subsequently, plasma proteins were precipitated from the supernatant with ice-cold acetonitrile (1.5 mL), and samples were centrifuged (3 min, 13 000 rpm). The residual activity in the pellet was <3%. The supernatant (∼2.0 MBq, 1.0 mL) was analyzed by radio-HPLC. HPLC method: ZORBAX column (300SB-C18, semipreparative 9.4 mm × 250 mm, 5 μm) using acetonitrile and water as the mobile phase, at a flow rate of 3.0 mL/min. The following gradient was used: from 50% to 90% acetonitrile in 15 min; kept at 90% acetonitrile for 10 min; from 90 to 50% acetonitrile in 5 min.
^18F-FBPT-Ox (2–4 MBq, 50 μL in 10% EtOH/PBS) was added to serum (500 μL) and incubated at 37 °C for 5, 15, and 30 min, respectively. Plasma proteins were precipitated with a 5-sulfosalicylic acid water solution (10% w/v, 1 mL) and centrifuged (3 min, 13 000 rpm). The supernatant was removed and diluted with 500 μL of DI H2O and analyzed via radio-HPLC. A control experiment was performed where ^18F-FBPT-Ox (2 MBq, 50 μL in 10% EtOH/PBS) was added to 500 μL of PBS, incubated at 37 °C for 30 min. A 5-sulfosalicylic acid water solution (10% w/v, 1 mL) was added, thoroughly mixed, then diluted with 500 μL of DI H2O, and analyzed via radio-HPLC. […]

[2] = Post-mortem biodistribution in healthy rats; format: in vivo, Wistar rats; conditions: iv; for Ex vivo biodistribution, Blood / Ex vivo biodistribution, Bone / Ex vivo biodistribution, Brain / Ex vivo biodistribution, Heart / Ex vivo biodistribution, Kidney / Ex vivo biodistribution, Large Intestine / Ex vivo biodistribution, Liver / Ex vivo biodistribution, Lung / Ex vivo biodistribution, Muscle / Ex vivo biodistribution, Small Intestine / Ex vivo biodistribution, Spleen / Ex vivo biodistribution, Urine: healthy rats, mean ± SD, n = 3
Procedure: Wistar rats (male, 319 ± 20 g) were injected intravenously via the tail vein with either ^18F-FPBT (1.0 ± 0.4 MBq) or ^18F-FPBT-Ox (1.1 ± 0.5 MBq). The animals were sacrificed by cervical dislocation at 1, 5, or 30 min postinjection (n = 3/group). Organs and tissues of interest were harvested and weighed, and the radioactivity was measured in a gamma counter. Organ uptake was calculated as the percentage injected dose per gram of tissue mass (% ID/g). Data are reported as mean ± SD.

[3] = Lipophilicity, partition between 1-octanol and PBS; format: physicochemical; conditions: 1-octanol/PBS pH 7.4, shake-flask, n = 6
Procedure: The lipophilicity of ^18F-FPBT and ^18F-FPBT-Ox was determined by a conventional partition method between 1-octanol and phosphate buffered saline (PBS), pH 7.4. 1-Octanol was presaturated with PBS before use. The radiotracer (∼2 KBq) was added to a mixture of PBS (200 μL) and 1-octanol (200 μL) in a 1.5 mL Eppendorf vial (n = 6). The mixture was vigorously agitated at rt for 5 min and then centrifuged at 3000 g for 10 min. A 100 μL aliquot from each layer was drawn for measurement in a gamma counter. The LogDoct/PBS was calculated as follows: log [(cpm in the 1-octanol layer – cpm 1-octanol blank)/(cpm in the PBS layer – cpm PBS blank)].

[4] = In vivo blood stability of 18F-FPBT-Ox; set-up: species or system Wistar rats; conditions: rats, plasma radio-HPLC with gamma counting, n = 2
Procedure: Wistar rats (male, 320 ± 20 g) were intravenously injected with ^18F-FPBT-Ox (∼15 MBq). The animals were sacrificed by cervical dislocation at 30 min postinjection (n = 2). Blood samples were collected in heparin-coated tubes. After centrifugation (5 min, 13 000 rpm), the plasma (∼1 mL) was separated. Plasma proteins were subsequently precipitated with 5-sulfosalicylic acid water solution (10% w/v, 1.5 mL) and centrifuged (5 min, 13,000 rpm). The supernatant was removed and diluted with 500 μL of DI H2O and analyzed via radio-HPLC. HPLC method: ZORBAX column (300SB-C18, semipreparative 9.4 mm × 250 mm, 5 μm). Solvent A: H2O. Solvent B: MeCN. Flow rate: 3.0 mL/min; 0–5 min, 0% of B; 5–20 min, 0–50% of B; 20–30 min, 50–0% of B. HPLC eluent was collected every minute in 30 vials separately and submitted to gamma counting. The counts per minute in each vial were plotted against the corresponding time point.

[5] = Ex vivo heart biomarkers of oxidative stress; format: in vivo, Wistar rats; conditions: hearts harvested after PET imaging, n = 4
Procedure: (§1) Male Wistar rats (280–300 g) were used in all experiments. Subcutaneous 7 day osmotic pumps (Alzet), containing either doxorubicin (Cambridge Bioscience, 30 mg/kg cumulative dose) or vehicle (sterile 0.9% NaCl), were inserted into rats under 2% isoflurane in 100% oxygen.
Total glutathione concentration was determined by an enzyme recycling method.[21] Lipid peroxidation was evaluated using the lipid peroxidation (MDA) assay kit from Sigma-Aldrich, which measures the colorimetric product that results from the reaction of malondialdehyde (MDA) present in the tissue with thiobarbituric (TBA) acid. Iron content was measured in isolated mitochondria and cytosolic fractions using the iron colorimetric assay kit from BioVision following the manufacture’s protocol.

[6] = Rat model of doxorubicin-induced cardiotoxicity: body weight and echocardiography; format: in vivo, Wistar rats; conditions: rats
Procedure: as §1
In order to assess cardiac function, all rats were subjected to a cardiac ultrasound (Vevo 770TM, VisualSonics) 1 day prior to and on day 6 of osmotic pump implantation. Rats were anesthetized with 2% isoflurane in 100% oxygen and maintained at 37 °C via a homeothermic platform and rectal thermometer. High-resolution parasternal left ventricle (LV) long axis M-mode and B-mode images were obtained using an RMV710B transducer. Images were analyzed offline using Vevo Software to determine LV function. Data are reported as mean ± SD. Statistical analysis was performed using one-way ANOVA with Tukey’s multiple comparisons test.

Structure (SMILES): [18F]CCC[n+]1c(-c2ccccc2)sc2ccccc21 [^18F-FPBT-Ox]
- Serum stability (in words) [1]: excellent serum stability
- Route of clearance / excretion, in words ([2]; healthy Wistar rats): quickly cleared by the kidneys and excreted through the urine
- Uptake by major organs (brain, heart, lung, spleen), in words ([2]; healthy Wistar rats): significantly reduced uptake
- Ex vivo biodistribution, Blood ([2]; 1 min): 0.36 ± 0.12 % ID/g
- Ex vivo biodistribution, Bone ([2]; 1 min): 0.16 ± 0.14 % ID/g
- Ex vivo biodistribution, Brain ([2]; 1 min): 0.23 ±0.19 % ID/g
- Ex vivo biodistribution, Heart ([2]; 1 min): 0.39 ± 0.25 % ID/g
- Ex vivo biodistribution, Kidney ([2]; 1 min): 4.22 ± 0.20 % ID/g
- Ex vivo biodistribution, Large Intestine ([2]; 1 min): 0.12 ± 0.07 % ID/g
- Ex vivo biodistribution, Liver ([2]; 1 min): 1.49 ± 0.65 % ID/g
- Ex vivo biodistribution, Lung ([2]; 1 min): 0.31 ±0.05 % ID/g
- Ex vivo biodistribution, Muscle ([2]; 1 min): 0.06 ± 0.02 % ID/g
- Ex vivo biodistribution, Small Intestine ([2]; 1 min): 0.28 ± 0.20 % ID/g
- Ex vivo biodistribution, Spleen ([2]; 1 min): 0.26 ± 0.13 % ID/g
- Ex vivo biodistribution, Urine ([2]; 1 min): 1.39 ± 1.21 % ID/g
- Ex vivo biodistribution, Blood ([2]; 5 min): 0.15 ± 0.08 % ID/g
- Ex vivo biodistribution, Bone ([2]; 5 min): 0.09 ± 0.03 % ID/g
- Ex vivo biodistribution, Brain ([2]; 5 min): 0.14 ± 0.11 % ID/g
- Ex vivo biodistribution, Heart ([2]; 5 min): 0.18 ± 0.06 % ID/g
- Ex vivo biodistribution, Kidney ([2]; 5 min): 1.15 ± 0.75 % ID/g
- Ex vivo biodistribution, Large Intestine ([2]; 5 min): 0.10 ± 0.04 % ID/g
- Ex vivo biodistribution, Liver ([2]; 5 min): 1.17 ± 0.37 % ID/g
- Ex vivo biodistribution, Lung ([2]; 5 min): 0.21 ± 0.05 % ID/g
- Ex vivo biodistribution, Muscle ([2]; 5 min): 0.05 ± 0.02 % ID/g
- Ex vivo biodistribution, Small Intestine ([2]; 5 min): 1.59 ± 1.93 % ID/g
- Ex vivo biodistribution, Spleen ([2]; 5 min): 0.11 ± 0.04 % ID/g
- Ex vivo biodistribution, Urine ([2]; 5 min): 9.29 ± 3.02 % ID/g
- Ex vivo biodistribution, Blood ([2]; 30 min): 0.09 ± 0.04 % ID/g
- Ex vivo biodistribution, Bone ([2]; 30 min): 0.12 ± 0.06 % ID/g
- Ex vivo biodistribution, Brain ([2]; 30 min): 0.07 ± 0.07 % ID/g
- Ex vivo biodistribution, Heart ([2]; 30 min): 0.11 ± 0.06 % ID/g
- Ex vivo biodistribution, Kidney ([2]; 30 min): 0.59 ± 0.31 % ID/g
- Ex vivo biodistribution, Large Intestine ([2]; 30 min): 0.05 ± 0.04 % ID/g
- Ex vivo biodistribution, Liver ([2]; 30 min): 0.90 ± 0.59 % ID/g
- Ex vivo biodistribution, Lung ([2]; 30 min): 0.12 ± 0.07 % ID/g
- Ex vivo biodistribution, Muscle ([2]; 30 min): 0.03 ± 0.00 % ID/g
- Ex vivo biodistribution, Small Intestine ([2]; 30 min): 0.63 ± 0.64 % ID/g
- Ex vivo biodistribution, Spleen ([2]; 30 min): 0.07 ± 0.05 % ID/g
- Ex vivo biodistribution, Urine ([2]; 30 min): 15.80 ± 12.98 % ID/g
- LogD [3]: −1.00 ± 0.04 and ~−1
- Time stable in blood post IV injection [4]: at least 30 min

Structure (SMILES): COc1cccc2c1C(=O)c1c(O)c3c(c(O)c1C2=O)C[C@@](O)(C(=O)CO)C[C@@H]3O[C@H]1C[C@H](N)[C@H](O)[C@H](C)O1 [doxorubicin]
- Cardiac oxidative stress biomarkers (glutathione, maldonaldehyde, mitochondrial iron, cytosolic iron) compared to saline control group [5]: marginally higher
- Body weight decrease ([6]; doxorubicin 30 mg/kg cumulative dose by 7 day osmotic pump, implantation to day 7, n = 6): 16.2 ± 8.9%
- Reduction of left ventricular ejection fraction at day 6 compared to baseline at day 0 ([6]; doxorubicin 30 mg/kg cumulative dose by osmotic pump, echocardiography): 15%
- Left ventricular ejection fraction compared to time-matched vehicle controls at day 6 ([6]; echocardiography): cannot detect the statistical difference
